Data set [1] has as its system human liver microtissues. Briefly: Human liver microtissue (co-culture) cytotoxicity, cellular ATP. Format: cell-based. How it is done:
Toxicology of TAK-994 was assessed using lnSphero’s 3D lnSight Human Liver models, based on N-acetyl-L-cysteine causality assay, glutathione depletion assay, and lipopolysaccharide (LPS)-sensitization assay. Hepatotoxicity was assessed in 7- and 14-day mono and co-culture models, in which cells were exposed to TAK-994 (0.1, 0.3, 1, 3.16, 10, 31.6, or 100 μM) […].
The test system was Human 3D InSight Liver Models, production ID hLiMT_589, cryopreserved primary human hepatocytes (Lot IPDH_18; single donor) in monoculture or in co-culture with cryopreserved primary human nonparenchymal cells (Lot IPHN_17; single donor). Human liver microtissues are composed of roughly 1000 hepatocytes and 1000 non-parenchymal live cells. Non-parenchymal liver cell fractions are expected to be composed of Kupffer cells and liver endothelial cells however, these were not identified.
The culture medium was 3D InSight Human Liver Maintenance Medium TOX (Catalogue No. CS-07-001, InSphero). The treated cells in 96-well Akura™ plates were incubated in a humidified cell culture incubator (37°C, 5% CO2).
(§1) Mono and co-culture model cells were exposed to TAK-994 (0.1, 0.3, 1, 3.16, 10, 31.6, or 100 μM in 0.5% DMSO) for 7 days (TAK-994 administered on Days 0 and 4) or 14 days (TAK-994 administered on Days 0, 5, and 9). Six replicates were tested for each condition. The vehicle control was 0.5% DMSO, and the positive control was chlorpromazine (0.1, 0.3, 1, 3.16, 10, 31.6, or 100 μM in DMSO). Cellular ATP content was measured in the cell lysate on Days 7 or 14 of treatment. LDH release was measured in the cell supernatant on Days 4 and 7 or on Days 5, 9, and 14 and normalized to lysed controls.
(§2) Intracellular ATP content in model lysates was measured with the CellTiter-Glo® 2.0 Cell Viability Assay (Catalogue No. G9243, Promega). The Bioluminescent LDH Release Toxicity Assay Kit (Catalogue No. J2380, Promega) was used to assess extracellular LDH release and normalized to lysed controls. ATP, LDH, GSH, and triglycerides were measured according to internal technical operating procedures.

In data set [2] the test system is human liver microtissues. Briefly: LPS-sensitization assay in liver microtissues. Format: cell-based. The note with it: for IC50: cellular ATP on Day 14. How it is done: Six replicates were tested for each condition. […] Cellular ATP content was measured in the cell lysate on Day 14 of treatment. LDH release was measured on Days 5, 9, and 14 in the cell supernatant and normalized to lysed controls.
as §2

Data set [3] concerns the target human BSEP (Homo sapiens, UniProt O95342). The data set can be described thus: BSEP inhibition, [3H]TCA uptake into membrane vesicles. Type of data set: biochemical. The note with it: [3H]TCA transport. How it is done:
Covalent binding of TAK-994 was assessed by incubating [^14C]TAK-994 with human hepatocytes. The CVB level was determined by relating the total amount of radioactivity (pmol equivalent) to the protein concentration in each sample. Assessment of TAK-994 inhibition potential for the bile salt efflux pump (BSEP) was assessed by incubating [^3H(G)]taurocholic acid with TAK-994 (0 to 100 μM/l) or cyclosporin A after addition of 10 μl of membrane vesicles expressing BSEP or control membrane vesicles. Scintillation counts were assessed in two 5-min cycles.
Membrane vesicles prepared from baculovirus-infected insect cells, expressing human BSEP or controls (Lot Nos. ISAOG29 and IKING23, respectively), were purchased from GenoMembrane Co., Ltd.
The [^3H]TCA reaction mixture (n=42) containing TAK-994 (including 0–100 μM/L TAK-994) or cyclosporin A was pre-incubated at 37°C for 5 minutes. The transport reaction was initiated by addition of 10 μL of membrane vesicles expressing BSEP or control membrane vesicles (0.05 mg protein) to the [^3H]TCA reaction mixture (final [^3H]TCA concentration of 2 μM/L). […] The glass fiber filter was measured for radioactivity using an LSC. […]
The count rates in cpm were corrected to dpm, with the background and counting efficiency assessed using the external standard method described by the manufacturer. […]

For data set [4], the system named is human liver microtissues + FFA. Briefly: Hepatotoxicity in steatosis liver model (free fatty acids). Format: cell-based. The following applies: 14 days. The protocol: as §1, with “for” for “for 7 days (TAK-994 administered on Days 0 and 4) or”, “9). The cell culture medium was supplemented with free fatty acids of 100 μM of Oleic acid and 66 μM of Palmitic acid.” for “9).”, “Day” for “Days 7 or”, “Days” for “Days 4 and 7 or on Days”, “controls. Cellular triglyceride content was measured in the microtissues on Day 14.” for “controls.”
as §2

Data set [5] has as its system HepG2. The data set can be described thus: Mito Stress Test (Seahorse, ECAR and OCR). Format: cell-based, human. The note with it: 3, 10, 30, and 100 μM.

The structures appear in SMILES notation.

These results are taken from article PMC11939078, “TAK-994 mechanistic investigation into drug-induced liver injury” (Toxicological Sciences, 2025).

human BSEP, sequence (O95342 whole entry): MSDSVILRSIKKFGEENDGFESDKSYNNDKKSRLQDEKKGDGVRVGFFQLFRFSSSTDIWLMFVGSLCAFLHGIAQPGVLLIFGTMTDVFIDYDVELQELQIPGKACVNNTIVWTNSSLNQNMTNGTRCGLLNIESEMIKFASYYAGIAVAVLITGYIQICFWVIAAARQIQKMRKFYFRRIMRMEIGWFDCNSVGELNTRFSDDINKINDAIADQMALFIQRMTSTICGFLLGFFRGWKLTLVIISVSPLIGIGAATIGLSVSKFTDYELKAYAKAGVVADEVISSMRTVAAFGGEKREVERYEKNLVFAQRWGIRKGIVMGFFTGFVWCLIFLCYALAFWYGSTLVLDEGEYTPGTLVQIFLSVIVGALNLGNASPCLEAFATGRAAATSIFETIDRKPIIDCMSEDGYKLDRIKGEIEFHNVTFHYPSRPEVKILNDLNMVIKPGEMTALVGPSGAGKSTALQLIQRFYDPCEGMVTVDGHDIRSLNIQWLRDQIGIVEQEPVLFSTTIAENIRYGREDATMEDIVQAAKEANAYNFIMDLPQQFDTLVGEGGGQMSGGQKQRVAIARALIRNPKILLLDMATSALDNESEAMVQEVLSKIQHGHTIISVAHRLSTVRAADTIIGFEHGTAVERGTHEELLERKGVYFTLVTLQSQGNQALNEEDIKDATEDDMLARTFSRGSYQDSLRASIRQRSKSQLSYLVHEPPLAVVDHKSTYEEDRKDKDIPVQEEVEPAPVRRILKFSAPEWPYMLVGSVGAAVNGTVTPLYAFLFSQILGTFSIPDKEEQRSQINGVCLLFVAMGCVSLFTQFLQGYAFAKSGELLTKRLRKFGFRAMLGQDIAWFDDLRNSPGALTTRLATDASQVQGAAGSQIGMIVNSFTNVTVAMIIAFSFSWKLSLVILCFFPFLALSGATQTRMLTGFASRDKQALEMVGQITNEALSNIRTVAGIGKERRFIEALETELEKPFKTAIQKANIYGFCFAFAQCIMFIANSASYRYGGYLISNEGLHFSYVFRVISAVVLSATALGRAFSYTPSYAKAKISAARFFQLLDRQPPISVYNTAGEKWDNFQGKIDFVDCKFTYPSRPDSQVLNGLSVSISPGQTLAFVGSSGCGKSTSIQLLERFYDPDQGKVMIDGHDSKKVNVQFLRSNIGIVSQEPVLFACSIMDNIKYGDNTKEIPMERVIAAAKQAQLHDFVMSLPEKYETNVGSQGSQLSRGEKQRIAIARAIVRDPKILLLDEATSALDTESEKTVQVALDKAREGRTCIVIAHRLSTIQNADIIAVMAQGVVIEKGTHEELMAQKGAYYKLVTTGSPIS

For the molecule `CC(C)(O)C(=O)N1CC[C@H](NS(C)(=O)=O)[C@@H]1Cc1cccc(-c2cc(F)cc(F)c2)c1F.CC(C)(O)C(=O)N1CC[C@H](NS(C)(=O)=O)[C@@H]1Cc1cccc(-c2cc(F)cc(F)c2)c1F.O.O.O` [TAK-994], the “loss of cellular ATP” value in data set [1] (100 µM TAK-994, presence of nonparenchymal cells) is listed as approximately 50%. Moreover, the “liver microtissue IC50 relative to clinical Cmax” value in data set [1] (14 days, Cmax in patients dosed at 90 mg) is more than 100 fold. Besides, the half-inhibitory concentration (IC50) in data set [1] (cellular ATP, read-out: IC50, liver microtissues (Fig. 2B)) is more than 100 µM; in data set [2] (read-out: IC50, liver microtissues + LPS (Fig. 5A)), more than 100 µM; in data set [2] (read-out: IC50, liver microtissues without LPS (Fig. 5A)), more than 100 µM; in data set [3], 34.1 µM. Also, the “sensitization of liver microtissues by LPS (innate immune activation)” value in data set [2] is “no direct innate immune-mediated toxicity was observed”. Besides, in data set [4], the “sensitization of liver microtissues by free fatty acids” value is “no increased sensitivity”. The “changes to mitochondrial respiration (media acidification and oxygen consumption rate)” value in data set [5] is on record as “no TAK-994-induced changes to mitochondrial respiration”.
